Assay results reported in patent publication US11464826B2, “Composition comprising an algal proteoglycan extract and use thereof” (priority 2016, dated 2022).
Like-named read-outs stand apart in the source and are kept apart here.

Columns and labels:
S-180 sarcoma = experiment: Transplanted S-180 sarcoma in mice, tumor inhibition
Procedure: Tumors, including B-16 melanoma and S-180 sarcoma, were provided by Shanghai Institute of Materia Medica of the Chinese Academy of Sciences.
The tumor tissue was made into cell suspension. The mice were inoculated subcutaneously in the right axilla with the cell suspension, about 4.5-5×10^6 cells/mouse. After 24 hours, the mice were randomly divided into different groups and housed in separate cages (n=6). […] The administration began on the second day and lasted for seven days, with different doses. The blank control group was given normal saline (NS). The animals were sacrificed and weighed (g body weight) 24 hours after drug withdrawal. The tumors were excised and weighed. The average tumor weight was calculated for each group. According to the following formula, the tumor inhibition rate was calculated and T test was conducted.
According to the formula below, the tumor inhibition rate was calculated and T test was conducted.
(§1) A=average tumor weight (g) of blank control group,
B=average tumor weight (g) of therapeutic group

B16 melanoma = experiment: Transplanted B16 melanoma in mice, tumor inhibition; type: in vivo, C57 mice; conditions: alone or combined, once a day for seven days
Procedure: The tumor tissue was made into cell suspension. […] The blank control group was given normal saline (NS). […] The tumors were excised and weighed. The average tumor weight was calculated for each group.
as §1
B =average tumor weight (g) of therapeutic group

pancreatic carcinoma = conditions: cited from earlier work
liver cancer = conditions: treatment group (placebo control group 7.9 months); cited from earlier work
[1] = Table 18: 5-Fluorouracil 15 mg/kg i.p, Algal proteoglycan 20 mg/kg p.o, alone or combined, once a day for seven days
[2] = Table 14: Adriamycin 1 mg/kg i.p, Algal proteoglycan 30 mg/kg p.o
[3] = Table 12: Carboplatin 4 mg/kg i.p, Algal proteoglycan 30 mg/kg p.o
[4] = Table 13: Carboplatin 4 mg/kg i.p, Algal proteoglycan 60 mg/kg p.o
[5] = Table 16: Carboplatin 4 mg/kg i.p, Algal proteoglycan 20 mg/kg p.o, alone or combined, once a day for seven days
[6] = Table 15: Cyclophosphamide 7.5 mg/kg i.p, Algal proteoglycan 60 mg/kg p.o, alone or combined, once a day for seven days
[7] = Table 17: Etoposide 3 mg/kg i.p, Algal proteoglycan 20 mg/kg p.o, alone or combined, once a day for seven days

O=c1[nH]cc(F)c(=O)[nH]1 [5-Fluorouracil, 5-fluorouracil]
inhibitory effect on the transplanted tumor of S-180 sarcoma, in words (S-180 sarcoma; 5-fluorouracil 15 mg/kg used alone): moderate inhibitory effect | Tumor Inhibition Rate (%) (S-180 sarcoma; [1]): 33.8% | Tumor Weight (g) x ± SD (S-180 sarcoma; [1]): 1.04 ± 0.52 g

COc1cccc2c1C(=O)c1c(O)c3c(c(O)c1C2=O)C[C@@](O)(C(=O)CO)C[C@@H]3O[C@H]1C[C@H](N)[C@H](O)[C@H](C)O1 [Adriamycin]
Tumor Inhibition Rate (%) (B16 melanoma; [2]): 41.5% | Tumor Weight (g) x ± SD (B16 melanoma; [2]): 1.97 ± 0.84 g

N.N.O=C([O-])C1(C(=O)[O-])CCC1.[Pt+2] [Carboplatin]
Body Weight (g) in the Beginning (B16 melanoma; [3]): 18.0 g | Body Weight (g) in the End (B16 melanoma; [3]): 16.7 g | Tumor Inhibition Rate (%) (B16 melanoma; [3]): 28.2% | Tumor Weight (g) x ± SD (B16 melanoma; [3]): 1.07 ± 0.88 g | Body Weight (g) in the Beginning (B16 melanoma; [4]): 20.3 g | Tumor Inhibition Rate (%) (B16 melanoma; [4]): 14.0% | Tumor Weight (g) x ± SD (B16 melanoma; [4]): 1.23 ± 0.37 g | inhibitory effect on the growth of the transplanted tumor of S-180 sarcoma, in words (S-180 sarcoma; Carboplatin 4 mg/kg used alone (P>0.05)): no inhibitory effect | Body Weight (g) in the End (S-180 sarcoma; [5]): 26.4 g | Tumor Inhibition Rate (%) (S-180 sarcoma; [5]): 7.7% | Tumor Weight (g) x ± SD (S-180 sarcoma; [5]): 1.68 ± 0.53 g

O=P1(N(CCCl)CCCl)NCCCO1 (stereo not drawn) [Cyclophosphamide]
Body Weight (g) in the Beginning (S-180 sarcoma; [6]): 22.8 g | Body Weight (g) in the End (S-180 sarcoma; [6]): 24.9 g | Tumor Inhibition Rate (%) (S-180 sarcoma; [6]): 42.2% | Tumor Weight (g) x ± SD (S-180 sarcoma; [6]): 1.11 ± 0.24 g

COc1cc([C@@H]2c3cc4c(cc3[C@@H](O[C@@H]3O[C@@H]5CO[C@@H](C)O[C@H]5[C@H](O)[C@H]3O)[C@H]3COC(=O)[C@H]23)OCO4)cc(OC)c1O [Etoposide]
Tumor Inhibition Rate (%) (S-180 sarcoma; [7]): 26.9% | Tumor Weight (g) x ± SD (S-180 sarcoma; [7]): 1.33 ± 0.28 g

Nc1ccn([C@@H]2O[C@H](CO)[C@@H](O)C2(F)F)c(=O)n1 [Gemcitabine FDR.]
Overall survival (pancreatic carcinoma; Poplon et al, 832 cases): 6.2 months

Nc1ccn([C@@H]2O[C@H](CO)[C@@H](O)C2(F)F)c(=O)n1 [Gemcitabine]
Overall survival (pancreatic carcinoma; Abou-Alfa et al, 349 cases): 6.2 months | Overall survival (pancreatic carcinoma; Berlin et al, 322 cases): 5.4 months | Overall survival (pancreatic carcinoma; Colucci et al, 400 cases): 7.2 months | Overall survival (pancreatic carcinoma; Cunningham et al, 533 cases): 7.1 months | Overall survival (pancreatic carcinoma; Heinemann et al, 195 cases): 6.0 months | Overall survival (pancreatic carcinoma; Hermann et al, 319 cases): 7.2 months | Overall survival (pancreatic carcinoma; Louvet et al, 313 cases): 7.1 months | Overall survival (pancreatic carcinoma; Oettle et al, 565 cases): 6.3 months | Overall survival (pancreatic carcinoma; Poplon et al, 832 cases): 4.9 months | Overall survival (pancreatic carcinoma; Rocha Lima et al, 342 cases): 6.3 months | Overall survival (pancreatic carcinoma; Starhopoulos et al, 145 cases): 6.4 months

CNC(=O)c1cc(Oc2ccc(NC(=O)Nc3ccc(Cl)c(C(F)(F)F)c3)cc2)ccn1 [Sorafenib]
median survival time (liver cancer): 10.7 months

Gemcitabine + capecitabine
Overall survival (pancreatic carcinoma; Cunningham et al, 533 cases): 6.2 months | Overall survival (pancreatic carcinoma; Hermann et al, 319 cases): 8.4 months

Gemcitabine + cisplatin
Overall survival (pancreatic carcinoma; Colucci et al, 400 cases): 8.2 months | Overall survival (pancreatic carcinoma; Heinemann et al, 195 cases): 7.5 months
